Test results as given in the supplement of paper PMC10307832.

compound: CC1CC(=O)N(C2=CN=C(N=C2N1C3CCCC3)NC4=C(C=C(C=C4)C(=O)NC5CCN(CC5)C)OC)C [NPK76-II-72-1] + O=C(c1cc(Cc2n[nH]c(=O)c3ccccc23)ccc1F)N1CCN(C(=O)C2CC2)CC1 [Olaparib] (partner 8 µM); test: relative viability (nuclei count vs DMSO), 5 days (fraction); higher = more cells survive; conditions: first compound 0.01 µM
How it was run: (§1)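 Lung cancer cell lines, seeded in 1536-well plates, were treated the following day by pin tool with a single drug or with five library-drug doses (not always all listed) in √10 steps on top of a fixed anchor-drug dose. Cells were fixed and nuclei stained in one step after 5 days, and nuclei were counted. Relative viability is the nuclei count for treated wells divided by that for vehicle wells, reported as medians of duplicate plates.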

Cell Line	relative viability
EPLC-272H	0.831
NCI-H1355	0.682
NCI-H3122	0.6
NCI-H1437	0.626
NCI-H1755	0.858
HCC-15	0.679
PC-14	0.295
EKVX	0.755
LC-2-ad	0.673
NCI-H1944	0.429
NCI-H1975	0.769
RERF-LC-KJ	0.903
ABC-1	0.606
NCI-H358	0.58
NCI-H650	0.391
PC-3 [JPC-3]	1.12

same assay, conditions: first compound 0.03162 µM

Cell Line	relative viability
EPLC-272H	0.825
NCI-H1792	0.362
NCI-H1355	0.755
NCI-H3122	0.6
NCI-H1437	0.666
NCI-H1755	0.915
HCC-15	0.766
NCI-H1793	0.985
PC-14	0.377
EKVX	0.898
LC-2-ad	0.72
NCI-H1944	0.438
NCI-H1975	0.841
RERF-LC-KJ	0.914
ABC-1	0.537
NCI-H358	0.665
NCI-H650	0.316

same assay, conditions: first compound 0.1 µM

Cell Line	relative viability
EPLC-272H	0.782
NCI-H1792	0.357
NCI-H1355	0.7
NCI-H3122	0.722
NCI-H1437	0.613
NCI-H1755	0.888
HCC-15	0.639
NCI-H1793	1.02
PC-14	0.384
EKVX	0.735
LC-2-ad	0.702
NCI-H1944	0.409
NCI-H1975	0.716
RERF-LC-KJ	0.908
ABC-1	0.764
NCI-H358	0.598
NCI-H650	0.397
PC-3 [JPC-3]	1.09

same assay, conditions: first compound 0.3162 µM

Cell Line	relative viability
EPLC-272H	0.732
NCI-H1792	0.419
NCI-H1355	0.692
NCI-H3122	0.653
NCI-H1437	0.624
NCI-H1755	0.827
HCC-15	0.689
NCI-H1793	0.589
PC-14	0.267
LC-2-ad	0.704
NCI-H1944	0.43
NCI-H1975	0.811
RERF-LC-KJ	0.901
ABC-1	0.803
NCI-H650	0.354
PC-3 [JPC-3]	1.09

same assay, conditions: first compound 1 µM

Cell Line	relative viability
EPLC-272H	0.765
NCI-H1792	0.742
NCI-H1355	0.841
NCI-H3122	0.589
NCI-H1437	0.624
NCI-H1755	0.893
HCC-15	0.741
NCI-H1793	0.808
PC-14	0.32
EKVX	1.02
LC-2-ad	0.683
NCI-H1944	0.404
NCI-H1975	0.75
RERF-LC-KJ	0.905
ABC-1	1.34
NCI-H358	0.686
NCI-H650	0.489
PC-3 [JPC-3]	1.2

compound: CC[C@@H]1C(=O)N(C)c2cnc(Nc3ccc(C(=O)NC4CCN(C)CC4)cc3OC)nc2N1C1CCCC1 [BI-2536] + CS(=O)(=O)N1CCN(Cc2cc3nc(-c4cccc5[nH]ncc45)nc(N4CCOCC4)c3s2)CC1 [Pictilisib] (partner 1 µM); test: as above; conditions: first compound 0.01 µM
How it was run: as §1

Cell Line	relative viability
EPLC-272H	0.343
NCI-H1792	0.307
NCI-H1355	0.477
NCI-H3122	0.55
NCI-H1437	0.428
NCI-H1755	0.424
HCC-15	0.746
NCI-H1793	0.294
PC-14	0.688
EKVX	0.47
LC-2-ad	0.552
NCI-H1944	0.339
NCI-H1975	0.27
RERF-LC-KJ	0.565
ABC-1	0.81
NCI-H358	0.338
NCI-H650	0.849
PC-3 [JPC-3]	0.682

same assay, conditions: first compound 0.03162 µM

Cell Line	relative viability
EPLC-272H	0.256
NCI-H1792	0.354
NCI-H1355	0.43
NCI-H3122	0.555
NCI-H1437	0.427
NCI-H1755	0.399
HCC-15	0.795
NCI-H1793	0.214
PC-14	0.563
EKVX	0.483
LC-2-ad	0.192
NCI-H1944	0.336
NCI-H1975	0.284
RERF-LC-KJ	0.48
ABC-1	0.609
NCI-H358	0.235
NCI-H650	0.584
PC-3 [JPC-3]	0.769

same assay, conditions: first compound 0.1 µM

Cell Line	relative viability
NCI-H1792	0.207
NCI-H1355	0.227
NCI-H3122	0.153
NCI-H1437	0.397
NCI-H1755	0.157
HCC-15	0.365
NCI-H1793	0.191
PC-14	0.156
EKVX	0.444
LC-2-ad	0.0937
NCI-H1944	0.295
NCI-H1975	0.24
RERF-LC-KJ	0.249
ABC-1	0.214
NCI-H358	0.18
NCI-H650	0.245
PC-3 [JPC-3]	0.441

same assay, conditions: first compound 0.3162 µM

Cell Line	relative viability
EPLC-272H	0.233
NCI-H1792	0.111
NCI-H1355	0.161
NCI-H3122	0.23
NCI-H1437	0.098
NCI-H1755	0.151
HCC-15	0.124
NCI-H1793	0.174
PC-14	0.0423
EKVX	0.14
LC-2-ad	0.0909
NCI-H1944	0.157
NCI-H1975	0.117
RERF-LC-KJ	0.145
ABC-1	0.31
NCI-H358	0.14
NCI-H650	0.206
PC-3 [JPC-3]	0.268

same assay, conditions: first compound 1 µM

Cell Line	relative viability
EPLC-272H	0.151
NCI-H1792	0.0623
NCI-H1355	0.184
NCI-H3122	0.201
NCI-H1437	0.099
NCI-H1755	0.175
HCC-15	0.117
NCI-H1793	0.159
PC-14	0.0236
EKVX	0.123
LC-2-ad	0.0871
NCI-H1944	0.17
NCI-H1975	0.135
RERF-LC-KJ	0.206
ABC-1	0.243
NCI-H358	0.15
NCI-H650	0.15
PC-3 [JPC-3]	0.291

compound: CC[C@@H]1C(=O)N(C)c2cnc(Nc3ccc(C(=O)NC4CCN(C)CC4)cc3OC)nc2N1C1CCCC1 [BI-2536] + NC(=O)Nc1cc(-c2cccc(F)c2)sc1C(=O)N[C@H]1CCCNC1 [AZD7762] (partner 0.2 µM); test: as above; conditions: first compound 0.01 µM
How it was run: as §1

Cell Line	relative viability
EPLC-272H	0.198
NCI-H1792	0.704
NCI-H1355	0.697
NCI-H3122	0.939
NCI-H1437	1.01
NCI-H1755	0.452
HCC-15	0.653
NCI-H1793	0.45
PC-14	0.41
EKVX	0.613
LC-2-ad	0.872
NCI-H1944	0.476
NCI-H1975	0.726
RERF-LC-KJ	0.943
ABC-1	0.576
NCI-H358	0.64
NCI-H650	0.944
PC-3 [JPC-3]	0.878

same assay, conditions: first compound 0.03162 µM

Cell Line	relative viability
EPLC-272H	0.231
NCI-H1792	0.692
NCI-H1355	0.776
NCI-H3122	1
NCI-H1437	0.892
NCI-H1755	0.467
HCC-15	0.966
NCI-H1793	0.519
PC-14	0.395
EKVX	0.877
LC-2-ad	0.657
NCI-H1944	0.611
NCI-H1975	0.568
RERF-LC-KJ	0.926
ABC-1	0.871
NCI-H358	0.408
NCI-H650	1.4
PC-3 [JPC-3]	0.76

same assay, conditions: first compound 0.1 µM

Cell Line	relative viability
EPLC-272H	0.0832
NCI-H1792	0.415
NCI-H1355	0.751
NCI-H3122	0.204
NCI-H1437	1.03
NCI-H1755	0.305
HCC-15	1.03
NCI-H1793	0.102
PC-14	0.32
EKVX	0.63
LC-2-ad	0.166
NCI-H1944	0.269
NCI-H1975	0.639
RERF-LC-KJ	0.808
NCI-H358	0.266
NCI-H650	0.541
PC-3 [JPC-3]	0.321

same assay, conditions: first compound 0.3162 µM

Cell Line	relative viability
EPLC-272H	0.0551
NCI-H1792	0.0392
NCI-H1355	0.269
NCI-H3122	0.139
NCI-H1437	0.141
NCI-H1755	0.253
HCC-15	0.156
NCI-H1793	0.128
PC-14	0.0493
EKVX	0.614
LC-2-ad	0.17
NCI-H1944	0.12
NCI-H1975	0.236
RERF-LC-KJ	0.142
ABC-1	0.922
NCI-H358	0.153
NCI-H650	0.201
PC-3 [JPC-3]	0.216

same assay, conditions: first compound 1 µM

Cell Line	relative viability
EPLC-272H	0.0884
NCI-H1792	0.0281
NCI-H1355	0.185
NCI-H3122	0.117
NCI-H1437	0.163
NCI-H1755	0.265
HCC-15	0.149
NCI-H1793	0.123
PC-14	0.0531
EKVX	0.276
LC-2-ad	0.142
NCI-H1944	0.13
NCI-H1975	0.177
RERF-LC-KJ	0.174
ABC-1	0.301
NCI-H358	0.177
NCI-H650	0.138
PC-3 [JPC-3]	0.197

compound: CC[C@@H]1C(=O)N(C)c2cnc(Nc3ccc(C(=O)NC4CCN(C)CC4)cc3OC)nc2N1C1CCCC1 [BI-2536] + Nc1ncn([C@H]2C[C@H](O)[C@@H](CO)O2)c(=O)n1 [Decitabine] (partner 2 µM); test: as above; conditions: first compound 0.01 µM
How it was run: as §1

Cell Line	relative viability
EPLC-272H	0.359
NCI-H1792	0.587
NCI-H1355	0.357
NCI-H3122	0.386
NCI-H1437	0.572
NCI-H1755	0.689
HCC-15	0.652
NCI-H1793	0.419
PC-14	0.227
EKVX	0.303
LC-2-ad	0.739
NCI-H1944	0.454
NCI-H1975	0.321
RERF-LC-KJ	0.692
ABC-1	1.04
NCI-H358	0.204
NCI-H650	0.303
PC-3 [JPC-3]	0.775

same assay, conditions: first compound 0.03162 µM

Cell Line	relative viability
EPLC-272H	0.363
NCI-H1792	0.589
NCI-H1355	0.369
NCI-H3122	0.508
NCI-H1437	0.573
NCI-H1755	0.716
HCC-15	0.504
NCI-H1793	0.509
PC-14	0.172
EKVX	0.333
LC-2-ad	0.659
NCI-H1944	0.444
NCI-H1975	0.372
RERF-LC-KJ	0.437
ABC-1	0.989
NCI-H358	0.187
NCI-H650	0.328
PC-3 [JPC-3]	0.752

same assay, conditions: first compound 0.1 µM

Cell Line	relative viability
EPLC-272H	0.258
NCI-H1792	0.386
NCI-H1355	0.342
NCI-H3122	0.392
NCI-H1437	0.335
NCI-H1755	0.642
HCC-15	0.246
NCI-H1793	0.236
PC-14	0.09
EKVX	0.288
LC-2-ad	0.506
NCI-H1944	0.399
NCI-H1975	0.276
RERF-LC-KJ	0.157
ABC-1	0.385
NCI-H358	0.0935
NCI-H650	0.246
PC-3 [JPC-3]	0.757

same assay, conditions: first compound 0.3162 µM

Cell Line	relative viability
EPLC-272H	0.0826
NCI-H1792	0.0865
NCI-H1355	0.148
NCI-H3122	0.151
NCI-H1437	0.229
NCI-H1755	0.347
HCC-15	0.124
NCI-H1793	0.198
PC-14	0.0445
EKVX	0.164
LC-2-ad	0.247
NCI-H1944	0.168
NCI-H1975	0.172
RERF-LC-KJ	0.194
ABC-1	0.397
NCI-H358	0.0948
NCI-H650	0.146
PC-3 [JPC-3]	0.362

same assay, conditions: first compound 1 µM

Cell Line	relative viability
EPLC-272H	0.131
NCI-H1792	0.0535
NCI-H1355	0.154
NCI-H3122	0.159
NCI-H1437	0.197
NCI-H1755	0.379
HCC-15	0.151
NCI-H1793	0.145
PC-14	0.0408
EKVX	0.169
LC-2-ad	0.223
NCI-H1944	0.192
NCI-H1975	0.14
RERF-LC-KJ	0.215
ABC-1	0.467
NCI-H358	0.112
NCI-H650	0.126
PC-3 [JPC-3]	0.408
